According to patent US20200170256A1, “Amonia Based Piscicide” (priority 2018, published 2020):

Experiments:
mitochondrial complex I = conditions: 2011 NIH study; cited from earlier work
fathead minnows = fathead minnows exposed to the piscicide in 100-gallon laboratory tanks (effective amount of ammonium chloride); format: in vivo
Method: During each replicate trial, ten fathead minnows were exposed to the pisticide over a four hour period in 100-gallon laboratory tanks at 20° C.

Row | SMILES | role in inhibiting mitochondrial complex I among 31 tested piscicides (mitochondrial complex I) | effective amount of ammonium chloride alone (approximate same effect) (fathead minnows)
1 | C=C(C)[C@H]1Cc2c(ccc3c2O[C@@H]2COc4cc(OC)c(OC)cc4[C@@H]2C3=O)O1 [Rotenone] | greatest role in inhibiting mitochondrial complex I | –
2 | Cl.N [ammonium chloride] | – | 0.6-0.8 grams per gallon
